# Experimental data: publication PMC12647017, “Discovery and optimization of a synthetic small protein domain targeting antibodies” (Frontiers in Bioengineering and Biotechnology, 2025)
# Columns and labels:
# human polyclonal IgG = assay: Screening ELISA of phage display clones (crude extracts) against human polyclonal IgG; assay type: binding; conditions: crude extract of clones from 6th panning round, 1 µg/well human polyclonal IgG, blocked 3% (w/v) BSA in TBS, 50 µL extract 1 h at 37 °C, Anti-HA tag-HRP, ABTS, Abs405nm
# Procedure: The biopanning of the previously developed WWp5_4 library ([Dias et al., 2025]) (Figures 1A,B) against human polyclonal IgG was performed for six rounds, after which an enrichment of ligands was observed (Supplementary Table S3). To assess the binding of each clone to the target, 192 clones were selected and expressed at small scale in 96-deep well blocks, following conditions previously optimised. After cell lysis, the supernatant containing the soluble fraction was used for ELISA assays. The results in Figure 1C illustrate the difference in the absorbance profile of the screened ligands. […] From these 26, only 21 presented high quality for reliable sequencing results. The sequence alignment and diversity of the different binders is represented in Table 1 and Figure 2A.
# Small Scale Protein Expression and screening ELISA: From the output of the 6th round of panning, 94 isolated colonies were peaked into two sterile 96-well deep well 2mL round-bottom plates and grown with 200 µL of LB with ampicillin, 125 rpm, 37 °C, overnight (master plates). The following day, to one of the master plates was added glycerol to achieve a final concentration of 15% and was stored at -80 °C. Regarding the other master plate, 12 µL of this culture was added to another sterile 96-well deep well 2 mL round-bottom plate with 1.2 mL of LB with ampicillin and was grown at 37 °C, 125 rpm until OD600nm achieved 0.5-0.6. After this, protein expression was induced with 1 mM IPTG and continued incubation with the previous conditions. The following day, the cultures were sonicated for 30 minutes in ice-water bath and centrifuged for 10 minutes at 2500 x g. The supernatant was collected and transferred to a new microplate to be used in the screening for the ELISA (crude extract). For the ELISA, three microplates were tested: A) Sample binding plate; B) Negative control plate; C) Expression plate. On the sample binding plate, 1 µg/well of human polyclonal IgG was immobilized on the plate at 4 °C, overnight. On the following day, the target was removed, and the wells were washed once with TBS, then the plate was blocked with 300 µL 3% (w/v) BSA in TBS for 1 hour at 37 °C. After this, the wells were washed once with TBS, and were then incubated with 50 µL of crude extract (containing WW domain) for 1 hour at 37 °C. The plate was then washed 5 times with TBS-T, and then incubated with 100 µL of the Anti-HA tag-HRP conjugated antibody (diluted 1:1000) for 1 hour at 37 °C. The plate was then washed once with TBS-T and 4 times with TBS, and then incubated with the substrate ABTS for 1 hour at the dark at 37 °C. The results were then analysed in a microplate reader (TECAN) and the Abs405nm was then measured.
# For the Negative control plate the protocol was the same as for the Binding microplate, except for the target immobilization. Instead of having IgG, only coating buffer was added. This plate allows to detect clones that unspecific bind to BSA present in the Blocking Buffer. For the Expression plate the protocol started at the step of incubation with the crude extract, and from there the steps were the same as the Binding microplate. This plate allows to detect clone’s basal expression level.
# [1] = Partition of expressed E6 between soluble and insoluble fraction; assay type: physicochemical; conditions: E. coli Rosetta (DE3), supplementation with L-arginine / L-glutamic acid (tests E and H), Tris-Tricine gel
# Procedure: The gene corresponding to the chosen E6 sequence was cloned according to the detail information in Supplementary Material. The bacterial clones with the insert DNA were selected for protein expression in E. coli Rosetta (DE3) cells. For this purpose, the DNA was purified with NZYMiniprep kit and was used for transformation onto E. coli Rosetta competent cells following the protocol of the manufacturer. For the protein expression, a pre-inoculum was prepared adding 5 µL of the transformed colonies glycerol stock in 5 mL LB medium containing ampicillin (vector resistance) and […] (strain resistance). After 6 h of incubation, 1 mL of the culture was added to 100 mL of LB medium and was incubated overnight at 37 °C at 225 rpm. On the following day, 10 mL of the culture was inoculated onto 1 L of LB medium and was incubated at 37 °C at 225 rpm. […]
# The WWp5_4 scaffold is composed by 42 amino acid residues with a molecular weight of approximately 5 kDa. […] The protein expression profile was evaluated under normal expression conditions (without supplementation of amino acids, test A) and a strong band at ∼ 5 kDa is visible (Supplementary Figure S3A). […] To assess whether test E or test H has higher content of soluble E6, bacterial cells were lysed and the soluble supernatant analysed. […]
sequence,measurement,setting,value
SMGLPPGWDEYKT RRFKL GKTYYYNH HILS KTSTWTDPRMSS [Clone E6],ELISA signal,human polyclonal IgG,High (high binders (Abs>0.4))
same,soluble fraction of expressed protein,[1],16%
